Test results reported in publication PMC7872314, “Modeling Bioavailable Concentrations in Zebrafish Cell Lines and Embryos Increases the Correlation of Toxicity Potencies across Test Systems” (Environmental Science & Technology, 2020).
Read-outs that look alike come from different tables or passages of the source.

Experiments:
[1] = system: ZF4 (fibroblasts) cell line; assay: alamarBlue (AB) endpoint of AB/CFDA/NR multiplex, cellular respiration; assay type: cell-based, zebrafish (Danio rerio); settings: Danio rerio, Fibroblast
ZF4 and ZFL cell lines = assay: Cytotoxicity assays, all endpoints, both cell lines (mean/range); assay type: cell-based, zebrafish (Danio rerio); settings: 48 h, mean of all cytotoxicity endpoints (without LDH) in ZF4 and ZFL
[2] = system: ZF4 (fibroblasts) cell line; assay: MTS assay (MTS/BCA multiplex), NAD(P)H metabolism; assay type: cell-based, zebrafish (Danio rerio); settings: Danio rerio, Fibroblast
[3] = system: ZFL (hepatocytes) cell line; assay: cells; assay type: cell-based, zebrafish (Danio rerio); settings: Danio rerio, Hepatocyte
[4] = system: ZF4 (fibroblasts) cell line; assay: ATP assay (ATP/LDH multiplex), ATP metabolism; assay type: cell-based, zebrafish (Danio rerio); settings: Danio rerio, Fibroblast
[5] = system: ZFL (hepatocytes) cell line; assay: cells; assay type: cell-based, zebrafish (Danio rerio); settings: Danio rerio, Hepatocyte; remark: listed apart in the source
[6] = system: zebrafish cell lines vs zebrafish embryo; assay: Potency ratios IC50;x/EC50;x (cytotoxicity assays vs mFET); parameters: species or system zebrafish (Danio rerio); settings: median over cytotoxicity endpoints, nominal, 48 h cells / 48 hpf mFET
[7] = system: ZFL (hepatocytes) cell line; assay: cells; assay type: cell-based, zebrafish (Danio rerio); settings: Danio rerio, Hepatocyte; remark: listed apart in the source
[8] = system: ZF4 (fibroblasts) cell line; assay: Neutral red, absorbance (NRa), AB/CFDA/NR multiplex, lysosome stability; assay type: cell-based, zebrafish (Danio rerio); settings: Danio rerio, Fibroblast
[9] = system: ZFL (hepatocytes) cell line; assay: cells; assay type: cell-based, zebrafish (Danio rerio); settings: Danio rerio, Hepatocyte; remark: listed apart in the source
[10] = system: ZF4 (fibroblasts) cell line; assay: Neutral red, fluorescence (NRf), AB/CFDA/NR multiplex, lysosome stability; assay type: cell-based, zebrafish (Danio rerio); settings: Danio rerio, Fibroblast
[11] = system: ZF4 (fibroblasts) cell line; assay: CFDA endpoint of AB/CFDA/NR multiplex, membrane stability; assay type: cell-based, zebrafish (Danio rerio); settings: Danio rerio, Fibroblast
[12] = system: diverse mammalian cell assay results; parameters: method as in https://comptox.epa.gov/dashboard/; settings: COMPTOX; ref https://comptox.epa.gov/dashboard/; read-out: median AC50; cited from earlier work
[13] = system: ZFL (hepatocytes) cell line; assay: cells; assay type: cell-based, zebrafish (Danio rerio); settings: Danio rerio, Hepatocyte; remark: listed apart in the source
[14] = ref Comptox, PubChem or DrugBank; cited from earlier work
[15] = system: ZF4 (fibroblasts) cell line; assay: BCA assay (MTS/BCA multiplex), protein amount; assay type: cell-based, zebrafish (Danio rerio); settings: Danio rerio, Fibroblast
[16] = system: ZFL (hepatocytes) cell line; assay: cells; assay type: cell-based, zebrafish (Danio rerio); settings: Danio rerio, Hepatocyte; remark: listed apart in the source
zebrafish embryos [17] = system: zebrafish embryos; parameters: method as in earlier work; settings: nominal, cited from earlier work
[18] = system: ZFL (hepatocytes) cell line; assay: cells; assay type: cell-based, zebrafish (Danio rerio); settings: Danio rerio, Hepatocyte; remark: listed apart in the source
zebrafish embryos [19] = assay: animal or person; assay type: in vivo, zebrafish (Danio rerio); settings: for EC50: Danio rerio

CO[C@H]1C[C@H](O[C@H]2[C@H](C)O[C@@H](O[C@@H]3/C(C)=C/C[C@@H]4C[C@@H](C[C@]5(C=C[C@H](C)[C@@H](C6CCCCC6)O5)O4)OC(=O)[C@@H]4C=C(C)[C@@H](O)[C@H]5OC/C(=C\C=C\[C@@H]3C)[C@]54O)C[C@@H]2OC)O[C@@H](C)[C@@H]1O [Doramectin, doramectin]
IC50 ([1]; AB - ZF4, log10 of IC50, read-out: LogIC50 (converted)): 17.1 µM
IC50 ([1]; AB - ZF4, read-out: IC50): 17.1 µM
IC50 ([1]; ZF4, 48 h exposure, nominal, log10, read-out: logIC50 (log10 IC50;nom) AB (converted)): 17 µM
IC50 ([1]; ZF4, 48 h exposure, nominal, read-out: IC50;nom AB): 17.1 µM
IC50 (ZF4 and ZFL cell lines; Danio rerio, log10, read-out: Mean log IC50nom (converted)): 9.12 µM
Mean log IC50nom (ZF4 and ZFL cell lines; log10, listed as Dor): -5.037 M
IC50 ([2]; MTS - ZF4, log10 of IC50, read-out: LogIC50 (converted)): 12.3 µM
IC50 ([2]; MTS - ZF4, read-out: IC50): 12.3 µM
IC50 ([2]; ZF4, 48 h exposure, nominal, log10, read-out: logIC50 (log10 IC50;nom) MTS (converted)): 12.3 µM
IC50 ([2]; ZF4, 48 h exposure, nominal, read-out: IC50;nom MTS): 12.3 µM
IC50 ([3]; NR-abs - ZFL, log10 of IC50, read-out: LogIC50 (converted)): 4.52 µM
IC50 ([3]; NR-abs - ZFL, read-out: IC50): 4.52 µM
IC50 ([3]; ZFL, 48 h exposure, nominal, log10, read-out: logIC50 (log10 IC50;nom) NRa (converted)): 4.57 µM
IC50 ([3]; ZFL, 48 h exposure, nominal, read-out: IC50;nom NRa): 4.52 µM
IC50 ([4]; ATP - ZF4, log10 of IC50, read-out: LogIC50 (converted)): 4.38 µM
IC50 ([4]; ATP - ZF4, read-out: IC50): 4.38 µM
IC50 ([4]; ZF4, 48 h exposure, nominal, log10, read-out: logIC50 (log10 IC50;nom) ATP (converted)): 4.37 µM
IC50 ([4]; ZF4, 48 h exposure, nominal, read-out: IC50;nom ATP): 4.38 µM
IC50 ([5]; NR-fluo - ZFL, log10 of IC50, read-out: LogIC50 (converted)): 5.08 µM
IC50 ([5]; NR-fluo - ZFL, read-out: IC50): 5.08 µM
IC50 ([5]; ZFL, 48 h exposure, nominal, log10, read-out: logIC50 (log10 IC50;nom) NRf (converted)): 5.13 µM
IC50 ([5]; ZFL, 48 h exposure, nominal, read-out: IC50;nom NRf): 5.08 µM
potency ratio IC50;nom/EC50;nom (median) [6]: 7.68
IC50 ([7]; ATP - ZFL, log10 of IC50, read-out: LogIC50 (converted)): 15.9 µM
IC50 ([7]; ATP - ZFL, read-out: IC50): 15.9 µM
IC50 ([7]; ZFL, 48 h exposure, nominal, log10, read-out: logIC50 (log10 IC50;nom) ATP (converted)): 15.8 µM
IC50 ([7]; ZFL, 48 h exposure, nominal, read-out: IC50;nom ATP): 15.9 µM
IC50 ([8]; NR-abs - ZF4, log10 of IC50, read-out: LogIC50 (converted)): 14.6 µM
IC50 ([8]; NR-abs - ZF4, read-out: IC50): 14.6 µM
IC50 ([8]; ZF4, 48 h exposure, nominal, log10, read-out: logIC50 (log10 IC50;nom) NRa (converted)): 14.5 µM
IC50 ([8]; ZF4, 48 h exposure, nominal, read-out: IC50;nom NRa): 14.6 µM
IC50 ([8]; ZF4 cell line, NRa endpoint, nominal, read-out: IC50;nom): 13.1 µg/mL
IC50 ([9]; MTS - ZFL, log10 of IC50, read-out: LogIC50 (converted)): 9.41 µM
IC50 ([9]; MTS - ZFL, read-out: IC50): 9.42 µM
IC50 ([9]; ZFL, 48 h exposure, nominal, log10, read-out: logIC50 (log10 IC50;nom) MTS (converted)): 9.33 µM
IC50 ([9]; ZFL, 48 h exposure, nominal, read-out: IC50;nom MTS): 9.42 µM
IC50 ([10]; NR-fluo - ZF4, log10 of IC50, read-out: LogIC50 (converted)): 15.3 µM
IC50 ([10]; NR-fluo - ZF4, read-out: IC50): 15.3 µM
IC50 ([10]; ZF4, 48 h exposure, nominal, log10, read-out: logIC50 (log10 IC50;nom) NRf (converted)): 15.5 µM
IC50 ([10]; ZF4, 48 h exposure, nominal, read-out: IC50;nom NRf): 15.3 µM
IC50 ([11]; CFDA - ZF4, log10 of IC50, read-out: LogIC50 (converted)): 16.8 µM
IC50 ([11]; CFDA - ZF4, read-out: IC50): 16.8 µM
IC50 ([11]; ZF4, 48 h exposure, nominal, log10, read-out: logIC50 (log10 IC50;nom) CFDA (converted)): 17 µM
IC50 ([11]; ZF4, 48 h exposure, nominal, read-out: IC50;nom CFDA): 16.8 µM
AC50 [12]: 1.87 µM
IC50 ([13]; AB - ZFL, log10 of IC50, read-out: LogIC50 (converted)): 6.74 µM
IC50 ([13]; AB - ZFL, read-out: IC50): 6.74 µM
IC50 ([13]; ZFL, 48 h exposure, nominal, log10, read-out: logIC50 (log10 IC50;nom) AB (converted)): 6.76 µM
IC50 ([13]; ZFL, 48 h exposure, nominal, read-out: IC50;nom AB): 6.74 µM
BCF [14]: 5.26
Physiological charge [14]: 0
logKoa [14]: 9.63
logKow [14]: 5.24
pKa (Strongest Acidic) [14]: 12.47
pKa (Strongest Basic) [14]: -3.4
w_solubility (water solubility) [14]: 39.5 µM
IC50 ([15]; BCA - ZF4, log10 of IC50, read-out: LogIC50 (converted)): 9.03 µM
IC50 ([15]; BCA - ZF4, read-out: IC50): 9.03 µM
IC50 ([15]; ZF4, 48 h exposure, nominal, log10, read-out: logIC50 (log10 IC50;nom) BCA (converted)): 9.12 µM
IC50 ([15]; ZF4, 48 h exposure, nominal, read-out: IC50;nom BCA): 9.03 µM
IC50 ([16]; BCA - ZFL, log10 of IC50, read-out: LogIC50 (converted)): 4.44 µM
IC50 ([16]; BCA - ZFL, read-out: IC50): 4.44 µM
IC50 ([16]; ZFL, 48 h exposure, nominal, log10, read-out: logIC50 (log10 IC50;nom) BCA (converted)): 4.47 µM
IC50 ([16]; ZFL, 48 h exposure, nominal, read-out: IC50;nom BCA): 4.44 µM
EC50 (zebrafish embryos [17]; 144 hpf, converted): 0.645 µM
logEC50 144 hpf (zebrafish embryos [17]; log10): -6.19 M
IC50 ([18]; CFDA - ZFL, log10 of IC50, read-out: LogIC50 (converted)): 9.33 µM
IC50 ([18]; CFDA - ZFL, read-out: IC50): 9.33 µM
IC50 ([18]; ZFL, 48 h exposure, nominal, log10, read-out: logIC50 (log10 IC50;nom) CFDA (converted)): 9.33 µM
IC50 ([18]; ZFL, 48 h exposure, nominal, read-out: IC50;nom CFDA): 9.33 µM
difference in toxicity (EC50;nom) between 48 hpf and 144 hpf (zebrafish embryos [19]; 48 hpf time point less sensitive than 144 hpf): marginally more toxic
log EC50;nom (mFET) (zebrafish embryos [19]; 48 hpf, nominal, log10, listed as Dor): -5.914 M
EC50 (zebrafish embryos [19]; 48 hpf, nominal, log10, read-out: log EC50;nom (mFET) (converted)): 1.23 µM
EC50 (zebrafish embryos [19]; 48 hpf, nominal, read-out: EC50;nom (embryo)): 1.1 µg/mL
EC50 (zebrafish embryos [19]; read-out: EC50 48hpf): 1.22 µM
EC50 (zebrafish embryos [19]; read-out: EC50;nom (mFET)): 1.22 µM
